Reference: patent publication US20250034216A1, “STEREOSELECTIVE COVALENT LIGANDS FOR ONCOGENIC AND IMMUNOLOGICAL PROTEINS” (The Scripps Research Institute, priority 2021, published 2025)

Tests used:
DDX49_258 = target: T1, DDX49_258 (Homo sapiens, UniProt Q9Y6V7); experiment: IA-DTB cysteine engagement; assay type: binding; conditions: 22Rv1 cells, 5 μM probe, 1 h (FIG. 5B), relative to DMSO
T1 construct: endogenous in cells; host or cells: 22Rv1
Summary of the method: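 Competitive chemoproteomics: residual cysteine reactivity toward IA-DTB in lysates from probe-treated cells was quantified by TMT reporter ions relative to DMSO-treated controls. Replicates sharing cell line, probe, concentration and duration were averaged.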

PSME1 22 = target: T2, PSME1 22 (Homo sapiens, UniProt Q06323); experiment: IA-DTB cysteine engagement, GluC + trypsin digest; assay type: binding; conditions: 22Rv1 cells
T2 construct: stereoselectively engaged C22 of endogenous PSME1 in 22Rv1 cells; endogenous in cells; host or cells: 22Rv1
T2 sequence (Q06323 whole entry): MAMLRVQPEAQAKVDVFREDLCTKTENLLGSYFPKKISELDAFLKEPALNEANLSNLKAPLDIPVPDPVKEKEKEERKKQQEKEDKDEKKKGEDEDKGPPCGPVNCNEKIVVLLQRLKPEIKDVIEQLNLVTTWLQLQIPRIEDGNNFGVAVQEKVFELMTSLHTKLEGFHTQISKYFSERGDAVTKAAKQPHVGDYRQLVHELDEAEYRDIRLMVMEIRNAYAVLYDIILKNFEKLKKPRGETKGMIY
Experimental: Sample preparation: Cells (adherent: 15 cm dishes, suspension: 2 million cells/mL) were treated with electrophilic probes in situ for indicated times and concentrations, washed with ice-cold PBS, and flash frozen in liquid nitrogen. Cell pellets were lysed by sonication (8 pulses, 40% power) in 500 μL ice-cold PBS supplemented with cOmplete protease inhibitors (1 tablet/10 mL of PBS). Whole cell lysates protein content was measured using a standard DC protein assay (Bio-Rad) and 500 μL (2 mg/mL protein content) were treated with 5 μL of 10 mM 1A-DTB (in DMSO) for 1 h at ambient temperature with occasional vortexing. Samples were methanol-chloroform precipitated with the addition of 500 μL ice-cold MeOH and 200 μL CHCl3, vortexed, and centrifuged (10 min, 10,000 g). Without disrupting the protein disk, both top and bottom layers were aspirated and the protein disk was washed with 1 mL ice-cold MeOH and centrifuged (10 min, 10,000 g). The pellets were allowed to air dry, and then re-suspended in 90 μL buffer (9 M urea, 10 mM DTT, 50 mM TEAB pH 8.5). Samples were reduced by heating at 65 C for 20 minutes and water bath sonicated as needed to resuspend the protein pellets, followed by alkylation via addition of 10 μL (500 mM) iodoacetamide and incubated at 37 C for 30 min with shaking. Samples were briefly centrifuged, and probe sonicated once more to ensure complete resuspension, and then diluted with 300 μL buffer (50 mM TEAB pH 8.5) to reach final concentration of 2 M urea. […] Digested samples were then diluted with 300 μL wash buffer (50 mM TEAB pH 8.5, 150 mM NaCl, 0.2% NP-40) containing streptavidin-agarose beads (50 μL of 50% slurry in wash buffer) and were rotated at room temperature for 2 hours. Enriched samples were pelleted by centrifugation (2000 g, 2 min) and transferred to BioSpin columns and washed (3×1 mL wash buffer, 3×1 mL PBS, 3×1 mL water). Enriched peptides were eluted by 300 μL 50% acetonitrile with 0.1% formic acid and eluate was evaporated to dryness via speedvac. IA-DTB labeled and enriched peptides were resuspended in 100 μL EPPS buffer (200 mM, pH 8.0) with 30% acetonitrile, vortexed, and water bath sonicated. Samples were TMT labeled with 3 μL of corresponding TMT tag (5 mg tag resuspended in 256 μL acetonitrile), vortexed, and incubated at room temperature for 1 hour. […]
Data processing: Cysteine engagement ratios (probe vs DMSO) were calculated for each peptide-spectra match by dividing each TMT reporter ion intensity by the average intensity for the channels corresponding to DMSO treatment. […]
Samples were analyzed by liquid chromatography tandem mass-spectrometry using an Orbitrap Fusion mass spectrometer (Thermo Scientific) coupled to an UltiMate 3000 Series Rapid Separation LC system and autosampler (Thermo Scientific Dionex). […]

T1 sequence (Q9Y6V7 whole entry): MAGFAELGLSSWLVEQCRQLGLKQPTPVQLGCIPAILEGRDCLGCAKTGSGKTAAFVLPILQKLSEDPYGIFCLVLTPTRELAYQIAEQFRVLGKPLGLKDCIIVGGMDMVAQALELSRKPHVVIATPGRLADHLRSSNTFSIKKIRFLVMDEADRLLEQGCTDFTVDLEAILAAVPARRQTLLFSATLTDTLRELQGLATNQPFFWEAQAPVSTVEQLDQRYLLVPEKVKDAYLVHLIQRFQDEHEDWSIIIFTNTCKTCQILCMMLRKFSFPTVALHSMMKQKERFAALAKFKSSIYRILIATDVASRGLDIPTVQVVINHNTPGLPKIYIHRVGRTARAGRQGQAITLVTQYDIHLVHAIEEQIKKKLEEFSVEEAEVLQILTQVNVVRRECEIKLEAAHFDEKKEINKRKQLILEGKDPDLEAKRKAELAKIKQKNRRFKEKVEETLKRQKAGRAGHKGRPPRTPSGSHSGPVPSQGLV

% engagement DDX49_258 (DDX49_258) [%]	percent engagement relative to DMSO, PSME1 22 (PSME1 22; 5 uM) [%]	percent engagement relative to DMSO, PSME1 22 (PSME1 22; 20 uM) [%]	SMILES
82.25	–	–	CC#CC(=O)N1C[C@H](c2ccc(Br)cc2)[C@@H]1C(=O)Nc1cccc2cccnc12 [MY-45B, (2R,3S)-3-(4-bromophenyl)-1-(but-2-ynoyl)-N-(quinolin-8-yl)azetidine-2-carboxamide]
–	−24.33	−26.32	C=CC(=O)N1[C@@H](c2ccc3c(c2)OCO3)c2[nH]c3ccccc3c2C[C@@H]1C(=O)N1CCOCC1 [WX-02-43, 1-((1S,3R)-1-(benzo[d][1,3]dioxol-5-yl)-3-(morpholine-4-carbonyl)-1,3,4,9-tetrahydro-2H-pyrido [3,4-b]indol-2-yl)prop-2-en-1-one]
–	−20.9	−29.44	C=CC(=O)N1[C@H](c2ccc3c(c2)OCO3)c2[nH]c3ccccc3c2C[C@H]1C(=O)N1CCOCC1 [WX-02-23, 1-((1R,3S)-1-(benzo[d][1,3]dioxol-S-yl)-3-(morpholine-4-carbonyl)-1,3,4,9-tetrahydro-2H-pyrido [3,4-b]indol-2-yl)prop-2-en-1-one]
5.50	–	–	C=CC(=O)N1C[C@H](c2ccc(Br)cc2)[C@@H]1C(=O)Nc1cccc2cccnc12 [MY-1B, (2R,3S)-1-acryloyl-3-(4-bromophenyl)-N-(quinolin-8-yl)azetidine-2-carboxamide]
